The values that follow come from article PMC10609081, “In Vivo Trafficking of the Anticancer Drug Tris(8-Quinolinolato) Gallium (III) (KP46) by Gallium-68/67 PET/SPECT Imaging” (Molecules, 2023).

Data set [1] is described as follows: Ex vivo biodistribution 2 h after intravenous injection, nu/nu mice bearing A375 xenografts. The data set is classed as in vivo. Particulars: i.v., tracer level. The procedure:
Figure S8. Ex vivo biodistribution of [ Ga]KP46 (tracer level) in nu/nu mice bearing A375 xenografts at two hours post i.v. injection via tail vein. […] Values are […]
expressed as mean ± SD (n = 3). (See below for methods)
Methodology for ex vivo biodistribution 2 h after intravenous injection of [68Ga]KP46 Mice were intravenously injected with tracer level [68Ga]KP46 and culled two hours post injection for organ harvesting and gamma counting. Consistent with the data shown in the main manuscript for 4 […]
[68Ga]KP46. Activity was also observed in the kidneys (30%ID/g for both kidneys) and urine, indicating excretion through urinary system. Significant activity was also seen in the lungs, heart, and small intestine (14.3 ± 0.6, 12.6 ± 1.7 and 12 ± 2.6 %ID/g, respectively), with minimal activity accumulating in the tumour (3.4 ± 0.4%ID/g) (Figure S8). […]

Data set [2] in a line: Pilot study 1: oral [68Ga]KP46, mice kept anaesthetised for four hours, ex vivo biodistribution. The data set is classed as in vivo. The conditions noted are these: anaesthetised 0-4 h. The procedure: 67Ga citrate to 67Ga chloride conversion method
67Ga was provided as [67Ga]Ga-citrate, typically 418-430 MBq in 5.5 ml at the time of receipt (76-78 MBq/ml). The 67Ga-citrate solution was passed through a Sep-Pak plus light silica cartridge (part number WAT023537) at a flow rate of 1 ml/min to trap the 67Ga on the silica cartridge. The eluate was passed through again to capture more (total 80%) of the available radioactivity on the cartridge.
The cartridge was then washed twice with 5 ml of H2O to remove citric acid, then eluted with 600 µl of 0.1 M HCl in 50 µl fractions. Fractions with the highest activity (fraction 4, 5, and 6) were used for […]
Tumour xenograft development
500 Figure S11. Tumour growth profile of A375
400 human melanoma cells in female athymic nude mice (2.5 x 10^6 cells). Data are 300 reported as mean ± SD (n=24).
Developing a method for the oral administration of [68Ga]KP46
In the first pilot study, mice bearing a tumour xenograft (A375) were anaesthetised, orally administered with [68Ga]KP46 (10 MBq, 400 µl) and PET scanned (no CT scan was performed) for four hours (n = 1), or orally administered with [68Ga]KP46 (1–2 MBq, 400 µl) and kept anaesthetised for four hours (n = 3), before being culled for organ harvesting and gamma counting. […]
radioactivity was in the stomach, with minimal uptake in the small intestine. […]

Data set [3] in a line: Distribution/partition coefficients (logD, logP), shake flask with gamma counting. The class given is physicochemical. Particulars: tracer level, mean ± SD. Here is the method:
Tracer-level [^68Ga]KP46 and [^68Ga]Ga-acetate solutions (5–20 µL, 0.3–0.5 MBq) were added to a pre-equilibrated mixture (500 µL/500 µL) of octanol/water (for logP measurement) or octanol/PBS (for logD7.4 measurement). Samples were vortexed for two minutes in a Multi Vortex Mixer V-32 (Grant Bio). From each layer, a sample of 200 µL was taken and its radioactivity measured using a gamma counter.

Data set [4] deals with T1, human serum albumin (HSA) (Homo sapiens, UniProt P02768).
T1 construct: purchased Sigma Aldrich
T1 sequence (P02768 25-609): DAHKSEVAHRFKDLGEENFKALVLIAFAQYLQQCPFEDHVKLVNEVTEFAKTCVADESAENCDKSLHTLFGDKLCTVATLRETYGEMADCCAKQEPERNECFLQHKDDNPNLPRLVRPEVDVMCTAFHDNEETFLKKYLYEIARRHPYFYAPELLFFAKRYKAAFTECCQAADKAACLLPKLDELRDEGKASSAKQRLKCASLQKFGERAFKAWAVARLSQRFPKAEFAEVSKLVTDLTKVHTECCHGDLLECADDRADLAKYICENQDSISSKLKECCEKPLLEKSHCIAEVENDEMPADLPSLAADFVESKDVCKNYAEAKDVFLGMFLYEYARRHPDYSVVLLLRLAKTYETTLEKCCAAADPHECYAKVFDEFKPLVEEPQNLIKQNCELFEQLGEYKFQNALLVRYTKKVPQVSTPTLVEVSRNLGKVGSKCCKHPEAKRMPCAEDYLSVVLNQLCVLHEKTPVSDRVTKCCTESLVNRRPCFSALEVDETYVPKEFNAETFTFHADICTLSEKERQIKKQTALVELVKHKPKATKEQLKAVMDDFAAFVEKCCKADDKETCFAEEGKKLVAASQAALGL
Put plainly: Binding to human serum albumin by size exclusion chromatography (PD MidiTrap G-25). The data set is classed as in vitro ADME. Here is the method: Solutions of human apo-transferrin (apo-Tf, 2 mg/mL) and human serum albumin (HSA, 50 mg/mL) (both purchased from Sigma Aldrich) were dissolved in aqueous NaHCO3 (5 mM, pH = 8) and PBS (pH = 7.4), respectively. An amount of 1 MBq of tracer-level [^68Ga]KP46 (13–20 µL) or [^68Ga]gallium acetate (20–25 µL) was added to 1.2 mL of the apo-Tf solution and to a similar apo-Tf-free NaHCO3 solution (control). Similarly, [^68Ga]KP46 and [^68Ga]gallium acetate solutions were added to 1.5 mL PBS containing HSA or HSA-free PBS (control). The samples were incubated for 60 min at 37 °C (pH = 7–7.5). From each mixture, 0.5 mL was loaded into PD MidiTrap G-25 size exclusion chromatography cartridges that were preconditioned with 8 mL of NaHCO3 (5 mM) (for apo-Tf binding) or PBS (for HSA binding). Fractions (0.5 mL) were collected and counted with a Wallac gamma counter. Protein absorbance at 280 nm was measured using a Nanodrop spectrophotometer. To investigate the speciation of the Ga–KP46 complex in the presence of apo-Tf at later time points (up to 48 h), the experiment was repeated with ^67Ga.
In general terms: Size exclusion chromatography separates by hydrodynamic size, large species first.

Consider `[68Ga+3].[O-]c1cccc2cccnc12.[O-]c1cccc2cccnc12.[O-]c1cccc2cccnc12` [[^68Ga]KP46], for which the “activity in kidneys, ex vivo” value in data set [1] (both kidneys) amounted to 30 %ID/g. Also, in data set [1] (n = 3), the “activity in heart, ex vivo” value is given as 12.6 ± 1.7 %ID/g; the “activity in liver, ex vivo” value is 31.4 ± 3.8 %ID/g; the “activity in lungs, ex vivo” value worked out at 14.3 ± 0.6 %ID/g; the “activity in small intestine, ex vivo” value stood at 12 ± 2.6 %ID/g. Moreover, the “activity in tumour, ex vivo” value in data set [1] (n = 3) was 3.4 ± 0.4 %ID/g. Moreover, the “activity in tumour, ex vivo” value in data set [2] is 0.6 ± 0.3 %ID/g. Also, in data set [3] (octanol/PBS), the “logD(octanol/PBS)” value stood at 1.90 ± 0.19. The “logP(octanol/water)” value in data set [3] (octanol/water) came out at 2.33 ± 0.28. In addition, the “radioactivity coeluting with HSA” value in data set [4] (1 h incubation at 37 °C, HSA 50 mg/mL in PBS) is listed as “about 16%”. The “binding of radioactivity to HSA” value in data set [4] (incubated 1 h with HSA) is “significant binding”.
